Experimental data taken from patent US9662318B2, “Bitopic muscarinic agonists and antagonists and methods of synthesis and use thereof” (BARRY UNIVERSITY, INC., priority 2012, dated 2017).
Read-outs that look alike come from different tables or passages of the source.

Experiments:
[1] = test system: M1-M5 muscarinic receptors; assay type: binding, human; conditions: competition experiments, all M1-M5
M4 muscarinic receptor [2] = molecular target: T1, M4 muscarinic receptor (Homo sapiens, UniProt P08173); assay: biochemical; assay type: binding; conditions: competition with [^3H]QNB
T1 construct: host or cells: Chinese hamster ovary cells
T1 sequence (P08173 1-479): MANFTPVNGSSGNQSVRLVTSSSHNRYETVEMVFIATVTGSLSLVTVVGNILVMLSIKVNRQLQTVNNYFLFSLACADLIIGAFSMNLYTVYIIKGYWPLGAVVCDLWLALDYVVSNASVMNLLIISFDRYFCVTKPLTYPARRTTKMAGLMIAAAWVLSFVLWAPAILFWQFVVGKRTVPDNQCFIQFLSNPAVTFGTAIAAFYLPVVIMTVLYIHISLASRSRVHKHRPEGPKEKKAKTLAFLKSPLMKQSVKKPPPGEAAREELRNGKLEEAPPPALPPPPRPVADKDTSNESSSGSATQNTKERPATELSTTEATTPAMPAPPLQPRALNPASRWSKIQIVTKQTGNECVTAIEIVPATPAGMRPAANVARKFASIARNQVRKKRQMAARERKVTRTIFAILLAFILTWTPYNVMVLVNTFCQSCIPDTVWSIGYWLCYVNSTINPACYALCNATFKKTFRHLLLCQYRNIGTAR

[3] = test system: M1-M5 muscarinic receptors; assay: Competition with [3H]NMS, statements over all subtypes; assay type: binding, human; conditions: competition experiments, all M1-M5
M5 muscarinic receptor [4] = molecular target: T2, M5 muscarinic receptor (Homo sapiens, UniProt P08912); assay: Dissociation of [3H]acetylcholine (full time course kinetics); assay type: binding; conditions: [3H]acetylcholine dissociation
T2 construct: host or cells: CHO (Chinese hamster ovary) cells, stably transfected
T2 sequence (P08912 1-532): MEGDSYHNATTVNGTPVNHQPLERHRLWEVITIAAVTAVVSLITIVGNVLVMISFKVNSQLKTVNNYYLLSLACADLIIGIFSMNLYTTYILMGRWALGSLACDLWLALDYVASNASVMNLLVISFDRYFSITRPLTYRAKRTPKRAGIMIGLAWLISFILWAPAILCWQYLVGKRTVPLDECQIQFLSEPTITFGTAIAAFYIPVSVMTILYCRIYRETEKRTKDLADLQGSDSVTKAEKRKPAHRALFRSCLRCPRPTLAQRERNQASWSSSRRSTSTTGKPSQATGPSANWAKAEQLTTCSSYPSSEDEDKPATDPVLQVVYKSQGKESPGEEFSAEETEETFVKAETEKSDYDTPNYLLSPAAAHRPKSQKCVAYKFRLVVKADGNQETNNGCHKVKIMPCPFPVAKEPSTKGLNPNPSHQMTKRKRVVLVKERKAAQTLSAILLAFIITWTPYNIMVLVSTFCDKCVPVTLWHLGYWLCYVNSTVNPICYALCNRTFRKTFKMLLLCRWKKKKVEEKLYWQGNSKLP
Description: (§1) To probe the ability of JB-D4 to allosterically modulate orthosteric ligand, its effect on the rate of orthosteric radioligand dissociation has been investigated. […] where y is the percentage of radioligand binding at time x of radioligand binding at time 0, koff1 and koff2 are rate dissociation constants and f2 is the percentage of sites with koff2 rate of dissociation. […] y is the percentage of radioligand binding at time x of radioligand binding at time 0, koff is rate dissociation constant and f is percentage of sites with koff rate of dissociation. Eq. 2 was fitted to the data from kinetic experiments. Data are means±SD from 3 independent experiments performed in quadruplicates.

M3 muscarinic receptor [5] = molecular target: T3, M3 muscarinic receptor (Homo sapiens, UniProt P20309); assay: as above; assay type: binding; conditions: [3H]acetylcholine dissociation
T3 construct: host or cells: Chinese hamster ovary cells
Description: as §1

M4 muscarinic receptor [6] = molecular target: T1, M4 muscarinic receptor; assay: as above; assay type: binding; conditions: [3H]acetylcholine dissociation
Description: as §1

M1 muscarinic receptor [7] = molecular target: T4, M1 muscarinic receptor (Homo sapiens, UniProt P11229); assay: as above; assay type: binding; conditions: [3H]acetylcholine dissociation
T4 sequence (P11229 1-460): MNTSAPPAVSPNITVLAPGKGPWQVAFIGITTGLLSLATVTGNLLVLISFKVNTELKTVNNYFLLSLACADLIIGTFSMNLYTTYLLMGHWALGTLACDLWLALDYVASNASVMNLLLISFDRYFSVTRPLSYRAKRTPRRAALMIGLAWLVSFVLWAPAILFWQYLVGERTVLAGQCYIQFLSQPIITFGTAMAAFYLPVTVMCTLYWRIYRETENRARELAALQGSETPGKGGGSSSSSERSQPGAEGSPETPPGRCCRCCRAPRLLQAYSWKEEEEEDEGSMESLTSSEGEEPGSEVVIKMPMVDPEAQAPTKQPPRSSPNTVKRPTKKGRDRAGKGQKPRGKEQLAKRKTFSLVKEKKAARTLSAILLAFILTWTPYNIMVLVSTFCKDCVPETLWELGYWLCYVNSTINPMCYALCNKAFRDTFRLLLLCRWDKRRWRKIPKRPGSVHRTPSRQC
Description: as §1

M5 muscarinic receptor [8] = molecular target: T2, M5 muscarinic receptor; assay: Dissociation of [3H]NMS (full time course kinetics); assay type: binding; conditions: [^3H]NMS dissociation, +0.1 mM JB-D4, M5
Description: (§2) To probe the ability of JB-D4 to allosterically modulate orthosteric ligand, its effect on the rate of orthosteric radioligand dissociation has been investigated. […] Eq. 1 was fitted to the data from kinetic experiments. Data are means±SD from 3 independent experiments performed in quadruplicates. Equations: y=(100-f2)*e^(-Koff1*X)+f2*e^(-Koff2*X) (Eq. 1) where y is the percentage of radioligand binding at time x of radioligand binding at time 0, koff1 and koff2 are rate dissociation constants and f2 is the percentage of sites with koff2 rate of dissociation. […]. 2)

M3 muscarinic receptor [9] = molecular target: T3, M3 muscarinic receptor; assay: as above; assay type: binding; conditions: [^3H]NMS dissociation
Description: as §2

M1 muscarinic receptor [10] = molecular target: T4, M1 muscarinic receptor; assay: as above; assay type: binding; conditions: [^3H]NMS dissociation
Description: as §2

T3 sequence (P20309 whole entry): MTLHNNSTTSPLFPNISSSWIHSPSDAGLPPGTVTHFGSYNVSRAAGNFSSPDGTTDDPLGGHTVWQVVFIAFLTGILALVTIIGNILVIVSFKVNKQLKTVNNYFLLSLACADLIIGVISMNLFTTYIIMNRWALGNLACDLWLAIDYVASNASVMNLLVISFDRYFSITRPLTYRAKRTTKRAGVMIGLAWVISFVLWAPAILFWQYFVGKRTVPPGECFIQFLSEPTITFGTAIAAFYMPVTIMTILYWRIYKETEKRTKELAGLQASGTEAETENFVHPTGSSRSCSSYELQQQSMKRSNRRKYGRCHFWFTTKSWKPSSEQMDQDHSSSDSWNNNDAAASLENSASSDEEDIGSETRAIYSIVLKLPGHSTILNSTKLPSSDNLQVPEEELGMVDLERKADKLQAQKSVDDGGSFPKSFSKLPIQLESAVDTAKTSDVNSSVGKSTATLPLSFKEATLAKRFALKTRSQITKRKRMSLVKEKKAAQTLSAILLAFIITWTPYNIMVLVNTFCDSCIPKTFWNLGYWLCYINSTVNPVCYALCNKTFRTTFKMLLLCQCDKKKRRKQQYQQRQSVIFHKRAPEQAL

## CCCCOc1ccc(C(=O)OCC[N+]2(C)CCCCC2)cc1.[I-] [JB-D4, 2-(N-piperidineethyl) p-butoxybenzoate N-methyl iodide]
[1]
  inhibition of QNB binding: fully inhibit
M4 muscarinic receptor [2]; M4
  Ki: 3.08 µM
M4 muscarinic receptor [2]; M4, average of 3, read-out: avg IC50
  IC50: 27.1 µM
M4 muscarinic receptor [2]; M4, experiment 1, read-out: IC50—1
  IC50: 20.6 µM
M4 muscarinic receptor [2]; M4, experiment 2, read-out: IC50—2
  IC50: 32.6 µM
M4 muscarinic receptor [2]; M4, experiment 3, read-out: IC50—3
  IC50: 28.1 µM
[3]
  inhibition of [^3H]NMS binding: fully inhibit
M5 muscarinic receptor [4]; +0.1 mM JB-D4, M5
  f: 81 ± 3%
M5 muscarinic receptor [4]; +0.1 mM JB-D4, M5, read-out: koff (converted)
  koff: 0.000633 s⁻¹
M5 muscarinic receptor [4]; +1 mM JB-D4, M5
  f: 81 ± 3%
  koff: 0.00055 ± 8.3e-05 s⁻¹
M5 muscarinic receptor [4]; +1 mM JB-D4, M5, read-out: koff (converted)
  koff: 0.00055 s⁻¹
M3 muscarinic receptor [5]; +0.1 mM JB-D4, M3
  f: 84 ± 3%
M3 muscarinic receptor [5]; +0.1 mM JB-D4, M3, read-out: koff (converted)
  koff: 0.00317 s⁻¹
M3 muscarinic receptor [5]; +1 mM JB-D4, M3
  f: 82 ± 3%
  koff: 0.0014 ± 0.00012 s⁻¹
M3 muscarinic receptor [5]; +1 mM JB-D4, M3, read-out: koff (converted)
  koff: 0.0014 s⁻¹
M4 muscarinic receptor [6]; +0.1 mM JB-D4, M4
  f: 81 ± 4%
  koff: 0.003 s⁻¹
M4 muscarinic receptor [6]; +1 mM JB-D4, M4
  f: 86 ± 3%
  koff: 0.000817 s⁻¹
M1 muscarinic receptor [7]; +0.1 mM JB-D4, M1
  f: 90 ± 3%
  koff: 0.00317 s⁻¹
M1 muscarinic receptor [7]; +1 mM JB-D4, M1
  f: 88 ± 3%
  koff: 0.00183 s⁻¹
M5 muscarinic receptor [8]
  koff1: 5e-05 ± 2.8e-06 s⁻¹
M3 muscarinic receptor [9]; +0.1 mM JB-D4, M3
  koff1: 0.000114 ± 8.3e-06 s⁻¹
M3 muscarinic receptor [9]; +1 mM JB-D4, M3
  koff1: 2.36e-05 ± 2.2e-06 s⁻¹
M1 muscarinic receptor [10]; +0.1 mM JB-D4, M1
  koff1: 0.000253 ± 1.4e-05 s⁻¹
  koff2: 0.000319 ± 1.7e-05 s⁻¹
M1 muscarinic receptor [10]; +0.1 mM JB-D4, M1, percentage of sites with koff2
  f2: 12 ± 1%
M1 muscarinic receptor [10]; +1 mM JB-D4, M1
  koff1: 0.000169 ± 1.7e-05 s⁻¹
